US9040547B2, “Pyrrolopyrimidine and purine derivatives” (PFIZER INC., priority 2011, dated 2015)

Experiments:
Format in all cases: cell-based
NCI-H3255 = test: Cell proliferation assay (CellTiter-Glo), NCI-H3255; conditions: Homo sapiens, value marked (H3255), read-out: 3T3 L858R IC50, (H3255)
Procedure: (§1) Cell proliferation was measured using the CellTiter-Glo® Luminescent Cell Viability Assay. The assay involves the addition of a single reagent (CellTiter-Glo® Reagent) directly to cells cultured in serum-supplemented medium. The assay uses this one-step addition to induce cell lysis and generate a luminescent signal proportional to the amount of ATP present which is directly proportional to the number of metabolically active cells present in culture. The following cell lines were evaluated in this assay: NIH3T3/EGFR_L858R, NIH3T3/EGFR_E746-A750_deletion, NIH3T3/EGFR L858R+T790M, NIH3T3/EGFR_E746-A750_deletion+T790M, PC-9, PC9-DRH, NCI-H1975, and NCI-H3255. NIH/3T3 parental cells, NCI-H1975, and NCI-H3255 were purchased from the American Type Culture Collection (Manassas, Va.), and PC-9 cells were obtained from Japan. All cells were cultured according to recommendations. NIH/3T3 cells were grown in DMEM (Invitrogen, Carlsbad, Calif.) supplemented with 10% newborn calf serum (Invitrogen), and NIH3T3/EGFR mutant cells were grown in complete media with 5 μg/mL puromycin (Invitrogen). PC-9, NCI-H1975, and NCI-H3255 were grown in RPMI (Invitrogen, Carlsbad, Calif.) supplemented with 10% FBS (Sigma, St Louis, Mo.), and PC9-DRH cells were grown in complete media with 2 uM PF-00299804. Plasmids (pLPCX) with various EGFR constructs were made by GenScript (Piscataway, N.J.), and stable pools of NIH/3T3 cells expressing these constructs were made at Pfizer La Jolla. PC9-DRH cells were generated at Pfizer La Jolla by exposing cells to increasing concentrations of PF-00299804. Cells were plated in complete culture media (3000-5000 cells/well, 50 μl/well) on the bottom of white clear-bottom tissue culture treated microtiter plates (#3610, Corning Inc, Corning, N.Y.) and allowed to adhere overnight at 37° C., 5% CO2. The following day, compound dilution plates were prepared in 96 well clear V-bottom 0.5 mL polypropylene block plates (#3956, Corning, Inc). All cell lines were not evaluated for each compound. Each compound evaluated was prepared as a DMSO stock solution (10 mM). Compounds were tested in duplicate on each plate, with an 11-point serial dilution curve (1:3 dilution). Compound treatment (50 μl) was added from the compound dilution plate to the cell plate. The highest compound concentration was 1 or 10 μM (final), with a 0.3% final DMSO (#D-5879, Sigma, St Louis, Mo.) concentration. Plates were then incubated at 37° C., 5% CO2. After three to five days of compound treatment, CellTiter-Glo® Reagent (#G7573, Promega, Madison, Wis.) was prepared in one of two ways. If thawing a frozen aliquot of CellTiter-Glo® Reagent, the aliquot was thawed and equilibrated to room temperature prior to use while keeping it protected from light. Alternatively, new bottles of CellTiter-Glo® Buffer and CellTiter-Glo® Substrate were thawed and equilibrated to room temperature prior to use. CellTiter-Glo® Buffer (100 mL) was transferred into the amber bottle containing CellTiter-Glo® Substrate to reconstitute the lyophilized enzyme/substrate mixture, forming the CellTiter-Glo® Reagent. The reconstituted reagent was mixed by gently inverting the contents to obtain a homogeneous solution, and went into solution easily in less than one minute. Any unused reconstituted CellTiter-Glo® Reagent was immediately aliquoted and frozen at −20° C., protected from light. Cell plates were equilibrated at room temperature for approximately 30 minutes. An equivolume amount of CellTiter-Glo® Reagent (100 μL) was added to each well. Plates were mixed for two minutes on an orbital shaker to induce cell lysis, and then allowed to incubate at room temperature for 10 minutes to stabilize the luminescent signal. Luminescence was recorded using the PerkinElmer EnVision Excite Multilabel Reader used for endpoint reading for Luminescence detection (Waltham, Mass.). Data were analyzed using a four-parameter fit in Microsoft Excel. […]

EGFR L858R, endogenous = target: T1, EGFR L858R, endogenous (Homo sapiens, UniProt P00533, L858R); test: pEGFR Y1068 ELISA assay, NCI-H3255 cells; conditions: value marked (H3255): NCI-H3255 cells, 2 hrs compound treatment; read-out: pEGFRY1068 ELISA3T3 L858R IC50 (nM), (H3255)
T1 construct: NCI-H3255 (EGFR L858R, endogenous); endogenous in cells; host or cells: NCI-H3255

EGFR Del (PC9) = target: T2, EGFR Del (PC9) (Homo sapiens, UniProt P00533, DEL746-750); test: EGFR ELISA, PC9 Del cells; conditions: read-out: EGFR_ELISA9E PC9 Del IC50;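 also: cellular EGFR autophosphorylation at Tyr1068 quantified by sandwich ELISA of cell lysates after 2 h compound exposure at 37 °C, 11-point threefold dilution series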
T2 construct: endogenous in cells; host or cells: PC-9

[1] = target: T3, EGFR L858R+T790M, endogenous (Homo sapiens, UniProt P00533, L858R/T790M); test: pEGFR Y1068 ELISA assay, NCI-H1975 cells; conditions: value marked (H1975): NCI-H1975 cells, 2 hrs compound treatment; read-out: pEGFRY1068 ELISA3T3T790M—L858R IC50 (nM), (H1975);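 also: sandwich ELISA of endogenous phospho-EGFR (Tyr1068) in lysates of treated cells, 11-point 1:3 serial dilution tested in duplicate per plate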
T3 construct: NCI-H1975 (EGFR L858R+T790M, endogenous); host or cells: NCI-H1975

[2] = target: T4, EGFR wildtype, endogenous (Homo sapiens, UniProt P00533); test: pEGFR Y1068 ELISA assay, A549 cells; conditions: full serum media, stimulated 10 min with EGF (40 ng/mL), read-out: pEGFRY1068 ELISAA549 IC50;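 also: sandwich ELISA of phospho-EGFR Tyr1068 in cell lysates, cells exposed to compound for 2 h before EGF stimulation, 11-point threefold dilution series run in duplicate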
T4 construct: A549 (EGFR wildtype, endogenous); host or cells: A549

NIH3T3/EGFR L858R+T790M = test: Cell proliferation assay (CellTiter-Glo), NIH3T3/EGFR L858R+T790M; conditions: Mus musculus, NIH3T3, 120 h, 3T3 cell line, three to five days of compound treatment, read-out: 3T3 L858R_T790M IC50
PC9-DRH = test: Cell proliferation assay (CellTiter-Glo), PC9-DRH; conditions: value marked (PC9-DRH), read-out: 3T3 del_T790M IC50, (PC9-DRH)
Procedure: as §1

PC-9 = test: Cell proliferation assay (CellTiter-Glo), PC-9; conditions: Homo sapiens, value marked (PC9), read-out: 3T3 del IC50, (PC9)
Procedure: as §1

EGFR L858R+T790M = EGFR L858R+T790M (Homo sapiens, UniProt P00533, L858R/T790M); test: pEGFR Y1068 ELISA assay, NIH3T3/EGFR_L858R+T790M cells; conditions: 3T3 cell line, 2 hrs compound treatment; read-out: pEGFRY1068 ELISA3T3T790M—L858R IC50;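 also: sandwich ELISA of EGFR phosphorylated at Tyr1068 in lysates of stably transfected NIH/3T3 cells, 11-point threefold dilution series run in duplicate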
EGFR L858R = EGFR L858R (Homo sapiens, UniProt P00533, L858R); test: pEGFR Y1068 ELISA assay, NIH3T3/EGFR_L858R cells; conditions: 3T3 cell line, 2 hrs compound treatment; read-out: pEGFRY1068 ELISA3T3 L858R IC50;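 also: sandwich ELISA of phospho-EGFR Tyr1068 in lysates of stably transfected NIH/3T3 pools after 2 h compound exposure at 37 °C, 11-point threefold dilution series run in duplicate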
NCI-H1975 = test: Cell proliferation assay (CellTiter-Glo), NCI-H1975; conditions: Homo sapiens, value marked (H1975), read-out: 3T3 L858R_T790M IC50, (H1975)
Procedure: as §1

EGFR E746-A750 deletion = EGFR E746-A750 deletion (Homo sapiens, UniProt P00533, DEL746-750); test: pEGFR Y1068 ELISA assay, NIH3T3/EGFR_E746-A750 deletion cells; conditions: 3T3 Del cells, 2 hrs compound treatment; read-out: ELISA7E 3T3 Del IC50;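 also: sandwich ELISA on cell lysates detecting phospho-EGFR at Tyr1068, compounds run as 11-point threefold dilution series in duplicate, IC50 from inhibition of this phosphorylation signal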

T4 sequence (P00533 25-1210): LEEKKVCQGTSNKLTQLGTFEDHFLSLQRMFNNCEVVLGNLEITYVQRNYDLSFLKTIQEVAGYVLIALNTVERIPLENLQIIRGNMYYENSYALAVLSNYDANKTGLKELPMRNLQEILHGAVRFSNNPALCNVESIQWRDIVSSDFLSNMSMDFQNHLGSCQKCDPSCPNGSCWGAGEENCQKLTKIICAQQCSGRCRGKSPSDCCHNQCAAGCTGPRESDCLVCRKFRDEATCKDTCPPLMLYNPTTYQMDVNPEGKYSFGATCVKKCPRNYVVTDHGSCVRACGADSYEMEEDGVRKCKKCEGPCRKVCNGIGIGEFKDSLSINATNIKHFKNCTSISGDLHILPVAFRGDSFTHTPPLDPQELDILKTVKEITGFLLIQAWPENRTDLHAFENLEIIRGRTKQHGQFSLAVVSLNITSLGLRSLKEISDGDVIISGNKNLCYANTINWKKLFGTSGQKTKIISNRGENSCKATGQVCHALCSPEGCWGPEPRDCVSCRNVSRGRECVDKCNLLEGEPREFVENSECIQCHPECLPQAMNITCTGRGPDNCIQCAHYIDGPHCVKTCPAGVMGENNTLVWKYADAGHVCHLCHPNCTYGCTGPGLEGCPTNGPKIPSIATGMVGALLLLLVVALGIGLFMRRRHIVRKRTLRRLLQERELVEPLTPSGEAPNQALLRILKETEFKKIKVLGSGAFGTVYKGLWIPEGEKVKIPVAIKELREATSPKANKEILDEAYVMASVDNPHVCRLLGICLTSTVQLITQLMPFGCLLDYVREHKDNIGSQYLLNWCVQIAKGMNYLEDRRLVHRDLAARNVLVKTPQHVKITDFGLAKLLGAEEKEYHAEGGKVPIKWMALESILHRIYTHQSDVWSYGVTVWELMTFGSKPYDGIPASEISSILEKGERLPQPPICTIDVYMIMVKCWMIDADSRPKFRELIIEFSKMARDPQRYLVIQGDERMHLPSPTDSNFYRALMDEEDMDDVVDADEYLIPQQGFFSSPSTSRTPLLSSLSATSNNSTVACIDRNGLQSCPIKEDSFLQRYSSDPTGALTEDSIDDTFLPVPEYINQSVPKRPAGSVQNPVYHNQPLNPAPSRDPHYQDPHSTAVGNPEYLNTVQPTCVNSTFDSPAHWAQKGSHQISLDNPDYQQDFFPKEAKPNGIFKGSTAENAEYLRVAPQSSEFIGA
T1 sequence (P00533 25-1210 L858R): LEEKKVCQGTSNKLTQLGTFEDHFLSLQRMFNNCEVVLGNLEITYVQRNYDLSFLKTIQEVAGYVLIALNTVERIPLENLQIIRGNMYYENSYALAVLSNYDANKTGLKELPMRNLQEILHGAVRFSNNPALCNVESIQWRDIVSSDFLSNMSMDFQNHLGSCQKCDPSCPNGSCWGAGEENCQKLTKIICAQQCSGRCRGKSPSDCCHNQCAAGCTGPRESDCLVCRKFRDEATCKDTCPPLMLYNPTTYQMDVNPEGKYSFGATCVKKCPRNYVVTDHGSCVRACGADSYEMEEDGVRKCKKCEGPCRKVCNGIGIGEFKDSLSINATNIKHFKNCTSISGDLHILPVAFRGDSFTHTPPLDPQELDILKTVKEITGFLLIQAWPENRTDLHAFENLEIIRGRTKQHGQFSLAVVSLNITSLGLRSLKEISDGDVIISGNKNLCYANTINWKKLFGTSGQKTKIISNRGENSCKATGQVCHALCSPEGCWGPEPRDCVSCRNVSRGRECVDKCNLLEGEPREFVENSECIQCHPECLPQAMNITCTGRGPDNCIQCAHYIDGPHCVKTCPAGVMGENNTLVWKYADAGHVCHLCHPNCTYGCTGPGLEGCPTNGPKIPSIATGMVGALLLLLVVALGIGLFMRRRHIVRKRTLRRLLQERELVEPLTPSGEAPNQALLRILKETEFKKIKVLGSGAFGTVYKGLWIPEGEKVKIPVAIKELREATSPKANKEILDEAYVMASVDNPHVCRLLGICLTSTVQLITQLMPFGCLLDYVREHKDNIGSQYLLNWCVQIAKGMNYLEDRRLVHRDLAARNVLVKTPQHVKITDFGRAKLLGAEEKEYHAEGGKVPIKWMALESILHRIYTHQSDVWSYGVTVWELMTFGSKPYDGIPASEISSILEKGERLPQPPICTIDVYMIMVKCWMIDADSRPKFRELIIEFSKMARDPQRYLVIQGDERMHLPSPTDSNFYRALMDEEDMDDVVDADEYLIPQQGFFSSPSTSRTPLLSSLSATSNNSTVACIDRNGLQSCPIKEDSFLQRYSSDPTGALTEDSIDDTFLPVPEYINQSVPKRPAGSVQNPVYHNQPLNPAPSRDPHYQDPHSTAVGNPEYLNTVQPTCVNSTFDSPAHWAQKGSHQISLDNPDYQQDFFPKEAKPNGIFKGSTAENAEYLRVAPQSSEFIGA
T2 sequence (P00533 with tags, fused parts or gaps DEL746-750): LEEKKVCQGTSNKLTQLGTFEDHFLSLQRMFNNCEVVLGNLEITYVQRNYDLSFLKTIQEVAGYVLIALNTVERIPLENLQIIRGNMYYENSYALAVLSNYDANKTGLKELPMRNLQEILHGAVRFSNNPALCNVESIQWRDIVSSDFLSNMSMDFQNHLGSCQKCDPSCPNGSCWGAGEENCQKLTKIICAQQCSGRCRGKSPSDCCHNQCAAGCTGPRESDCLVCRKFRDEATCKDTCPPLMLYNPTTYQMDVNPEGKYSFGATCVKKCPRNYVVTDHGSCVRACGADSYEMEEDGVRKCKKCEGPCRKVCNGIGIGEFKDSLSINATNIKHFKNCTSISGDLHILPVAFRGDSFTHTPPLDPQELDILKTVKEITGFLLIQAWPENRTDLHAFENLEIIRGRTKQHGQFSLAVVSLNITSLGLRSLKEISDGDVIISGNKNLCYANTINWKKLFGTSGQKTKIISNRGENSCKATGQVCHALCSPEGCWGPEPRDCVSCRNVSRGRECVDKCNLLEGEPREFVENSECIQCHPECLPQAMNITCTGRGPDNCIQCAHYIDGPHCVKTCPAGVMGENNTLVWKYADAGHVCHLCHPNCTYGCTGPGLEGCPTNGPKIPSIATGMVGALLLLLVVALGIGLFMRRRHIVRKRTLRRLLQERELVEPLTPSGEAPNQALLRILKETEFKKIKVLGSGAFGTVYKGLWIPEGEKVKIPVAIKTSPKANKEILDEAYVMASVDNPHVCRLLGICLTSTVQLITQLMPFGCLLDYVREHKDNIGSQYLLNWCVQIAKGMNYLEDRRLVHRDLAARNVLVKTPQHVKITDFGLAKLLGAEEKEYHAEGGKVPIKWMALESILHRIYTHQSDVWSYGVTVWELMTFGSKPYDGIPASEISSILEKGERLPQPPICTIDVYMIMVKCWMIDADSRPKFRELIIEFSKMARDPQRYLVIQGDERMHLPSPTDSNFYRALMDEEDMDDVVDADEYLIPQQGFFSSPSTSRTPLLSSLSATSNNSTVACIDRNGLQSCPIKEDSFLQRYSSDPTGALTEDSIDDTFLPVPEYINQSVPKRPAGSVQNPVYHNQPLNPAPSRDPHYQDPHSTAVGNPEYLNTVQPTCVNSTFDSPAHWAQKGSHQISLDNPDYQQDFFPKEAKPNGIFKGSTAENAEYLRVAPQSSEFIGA
EGFR L858R+T790M, sequence (P00533 25-1210 T790M/L858R): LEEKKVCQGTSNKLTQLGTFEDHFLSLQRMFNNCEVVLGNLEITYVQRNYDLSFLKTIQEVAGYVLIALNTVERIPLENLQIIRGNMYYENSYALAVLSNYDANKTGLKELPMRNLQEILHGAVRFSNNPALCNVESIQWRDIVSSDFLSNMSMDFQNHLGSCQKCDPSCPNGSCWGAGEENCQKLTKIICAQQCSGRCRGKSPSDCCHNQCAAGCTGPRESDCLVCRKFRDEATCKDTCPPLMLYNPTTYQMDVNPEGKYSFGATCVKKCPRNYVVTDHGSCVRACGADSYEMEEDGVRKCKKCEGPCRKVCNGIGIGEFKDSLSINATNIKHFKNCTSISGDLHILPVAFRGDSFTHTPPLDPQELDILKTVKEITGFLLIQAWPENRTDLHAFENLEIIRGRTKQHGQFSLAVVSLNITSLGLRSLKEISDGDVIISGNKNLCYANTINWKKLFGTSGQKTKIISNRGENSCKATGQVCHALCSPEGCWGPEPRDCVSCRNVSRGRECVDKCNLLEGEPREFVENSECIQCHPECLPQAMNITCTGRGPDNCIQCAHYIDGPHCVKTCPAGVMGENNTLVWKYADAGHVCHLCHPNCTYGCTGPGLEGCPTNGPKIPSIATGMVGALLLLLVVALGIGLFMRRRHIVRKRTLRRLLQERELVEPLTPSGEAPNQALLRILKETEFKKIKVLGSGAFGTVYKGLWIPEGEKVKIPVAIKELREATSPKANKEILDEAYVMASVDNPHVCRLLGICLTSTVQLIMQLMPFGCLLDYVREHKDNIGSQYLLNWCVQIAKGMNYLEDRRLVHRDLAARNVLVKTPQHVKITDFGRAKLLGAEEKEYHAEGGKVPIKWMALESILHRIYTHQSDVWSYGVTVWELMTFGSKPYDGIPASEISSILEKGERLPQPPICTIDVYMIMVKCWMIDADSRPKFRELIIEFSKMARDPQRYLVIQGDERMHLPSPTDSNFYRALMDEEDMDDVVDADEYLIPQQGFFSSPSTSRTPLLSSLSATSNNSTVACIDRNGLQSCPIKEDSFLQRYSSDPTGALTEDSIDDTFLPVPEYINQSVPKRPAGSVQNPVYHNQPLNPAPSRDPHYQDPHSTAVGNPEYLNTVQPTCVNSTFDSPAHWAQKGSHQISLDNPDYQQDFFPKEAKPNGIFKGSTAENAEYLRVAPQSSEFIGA

| Structure (SMILES) | IC50 (NCI-H3255) [nM] | IC50 (EGFR L858R, endogenous) [nM] | IC50 (EGFR Del (PC9)) [nM] | IC50 [1] [nM] | IC50 [2] [nM] | IC50 (PC9-DRH) [nM] | IC50 (PC-9) [nM] | IC50 (EGFR L858R+T790M) [nM] | IC50 (EGFR L858R) [nM] | IC50 (NCI-H1975) [nM] | IC50 (EGFR E746-A750 deletion) [nM] | IC50 (NIH3T3/EGFR L858R+T790M) [nM] |
| --- | --- | --- | --- | --- | --- | --- | --- | --- | --- | --- | --- | --- |
| C=CC(=O)N(C)[C@H]1C[C@H](Oc2nc(Nc3cnn(C)c3)nc3[nH]cc(-c4cnn(C)c4)c23)C1 [Example 95] | – | 2440 | 8570 | 1570 | > 10000 | – | – | – | – | – | – | – |
| C=CC(=O)N1CC[C@@H](Nc2nc(Nc3cnn(C)c3)nc3[nH]cc(Cl)c23)C1 [Example 96] | 100 to 1000 | 101 | 342 | 15 | 2180 | 10 to 100 | 100 to 1000 | – | – | – | – | 10 to 100 |
| C=CC(=O)N(C)[C@H]1C[C@H](Nc2nc(Nc3cn(C)nc3C)nc3[nH]cc(Cl)c23)C1 [Example 98] | 10 to 100 | 139 | 472 | – | 4290 | 10 to 100 | 100 to 1000 | 27 | – | – | – | 10 to 100 |
| C=CC(=O)N[C@]1(C)C[C@@H](Oc2nc(Nc3cnn(C)c3)nc3[nH]cc(Cl)c23)C1 [Example 113] | – | > 8580 | > 10000 | 457 | > 10000 | – | – | – | – | – | – | – |
| C=CC(=O)N(C)[C@H]1C[C@H](Oc2nc(Nc3cnn(CC#N)c3)nc3[nH]cc(Cl)c23)C1 [Example 116] | – | 107 | 328 | 24 | – | – | – | – | – | – | – | 10 to 100 |

The next lines start with results.

| IC50 (NCI-H3255) [nM] | IC50 (EGFR L858R, endogenous) [nM] | IC50 (EGFR Del (PC9)) [nM] | IC50 [1] [nM] | IC50 [2] [nM] | IC50 (PC9-DRH) [nM] | IC50 (PC-9) [nM] | IC50 (EGFR L858R+T790M) [nM] | IC50 (EGFR L858R) [nM] | IC50 (NCI-H1975) [nM] | IC50 (EGFR E746-A750 deletion) [nM] | Structure (SMILES) | IC50 (NIH3T3/EGFR L858R+T790M) [nM] |
| --- | --- | --- | --- | --- | --- | --- | --- | --- | --- | --- | --- | --- |
| 10 to 100 | – | – | – | – | – | – | – | – | – | – | C=CC(=O)N1C[C@H](COc2nc(Nc3cnn(C)c3)nc3[nH]cc(Cl)c23)[C@@H](F)C1 [Example 90] | – |
| > 1000 | – | 812 | – | 3440 | 100 to 1000 | > 1000 | 377 | 482 | – | – | C=CC(=O)N1C[C@@H]2CN(c3nc(Nc4cn(C)nc4OC)nc4[nH]cc(Cl)c34)C[C@@H]2C1 [Example 99] | 100 to 1000 |
| 100 to 1000 | – | – | – | – | – | 100 to 1000 | – | – | > 1000 | – | C=CC(=O)N1C[C@H](COc2nc(Nc3cnn(C)c3)nc3[nH]cc(Cl)c23)[C@@H](C(F)(F)F)C1 [Example 110] | – |
| 100 to 1000 | – | – | – | > 10000 | – | 100 to 1000 | 14 | 352 | > 1000 | 886 | C=CC(=O)N1C[C@H](COc2nc(Nc3ccn(C)n3)nc3[nH]cc(Cl)c23)[C@@H](OC)C1 [Example 111] | – |
| – | 85 | 953 | 73 | > 10000 | – | – | – | – | – | – | C=CC(=O)N1C[C@H](COc2nc(Nc3cn(CC#N)nc3C)nc3[nH]cc(Cl)c23)[C@@H](OC)C1 [Example 115] | – |
